# According to patent publication US10654824B2, “2-azabicyclo[3.1.0]hexan-3-one derivatives and methods of use” (Genentech, Inc., priority 2016, dated 2020):
# Entries after “also recorded” stand apart in the source; their conditions may differ.
# What was measured:
# NIK = biological target: T1, NIK (Homo sapiens, UniProt Q99558); experiment: NIK enzyme inhibition assay (Transcreener ADP, fluorescence polarization); type: biochemical; conditions: for NIK enzyme inhibition, rank among the 4 stereoisomers: in words, four separated stereoisomers of Example 1
# T1 construct: made in house; host or cells: baculovirus-infected insect cells
# Protocol: The ability of the nuclear factor-kappa B (NF-kB)-inducing kinase (NIK) to catalyze the hydrolysis of adenosine-5′-triphosphate (ATP) was monitored using the Transcreener ADP (adenosine-5′-diphosphate) assay (BellBrook Labs). Purified NIK (0.5 nM) derived from a baculovirus-infected insect cell expression system was incubated with test compounds for 1-3.5 hours in 50 mM 2-[4-(2-hydroxyethyDpiperazin-1-yl]ethanesulfonic acid buffer (pH 7.2) containing 10 mM MgCl2, 2 mM dithiothreitol, 10 μM ATP, 0.01% Triton X-100, 0.1% gamma-globulins from bovine blood, 1% dimethylsulfoxide (DMSO), 7 μg/mL ADP antibody and 5 nM ADP-MR121 633 tracer. Reactions were quenched by the addition of 20 mM 2,2′,2″, 2″′-(ethane-1,2-diyldinitrilo)tetraacetic acid and 0.01% Brij 35. The tracer bound to the antibody was displaced by the ADP generated during the NIK reaction, which causes a decrease in fluorescence polarization that was measured by laser excitation at 633 nm with a Fluorescence Correlation Spectroscopy Plus reader (Evotec AG). Equilibrium dissociation constant (Ki) values for NIK inhibitors are calculated from plots of activity vs. inhibitor concentration using Morrison's quadratic equation that accounts for the potential of tight binding, and by also applying the conversion factor that accounted for competitive inhibition and the concentration of substrate used in the assay relative to its Michaelis constant (Km).
# [1] = system: p52 nuclear translocation, non-classical NF-kB signaling, HUVEC; experiment: p52 HUVEC nuclear translocation assay; type: cell-based; conditions: Homo sapiens, anti-lymphotoxin beta receptor antibody 300 ng/mL
# Protocol: (§1) (2) A second set of cell assays used primary human umbilical vein cells (HUVEC) sourced from Lonza to define the selectivity of NIK inhibitors toward inhibition of classical vs. non-classical NF-kB signaling using high content cellular imaging. For the p52 (non-classical NF-kB signaling) nuclear translocation assay, HUVEC were treated with different concentrations of compounds (0.2% DMSO final) in EBM-2 medium (LONZA) containing 2% fetal bovine serum and then stimulated with 300 ng/mL of an anti-lymphotoxin beta receptor antibody (R&D Systems) for 4.5 hours. In the REL-A nuclear translocation assay, HUVEC were incubated with compounds (0.2% DMSO final) for 4 hours 50 minutes in EBM-2 medium containing 2% fetal bovine serum before stimulating them with 2 ng/mL tumor necrosis factor (TNF)-α (R&D Systems) for 10 minutes. Cells were fixed with 4% paraformaldehyde, permeabilized by adding 0.1% Triton X-100 in phosphate buffered saline, and then were incubated with either 2 μg/mL anti-p52 antibody (Millipore) or 400 ng/mL anti-REL-A (p65) antibody (Santa Cruz Biotechnology). […] Imaging was carried out using an Opera reader (Perkin Elmer) and data were analyzed with the aid of Acapella software (Perkin Elmer). The p52 or REL-A translocation into the nucleus was quantified by the ratio of the nuclear to cytoplasmic signal intensity.
# Hepatocyte stability = type: in vitro ADME, human
# Protocol: General. Metabolic stability assays in hepatocytes are conducted using cryopreserved pooled female CD-1 mouse, male Sprague-Dawley rat, male beagle dog, male cynomolgus monkey, and mixed male and female human hepatocytes (CellzDirect). Vials of hepatocytes are thawed rapidly in a water bath set at 37° C. and then are diluted with Dulbecco's modified Eagle's medium (DMEM), pH 7.4. Cells are isolated by centrifugation, pooled, and resuspended in DMEM at 1.0 million viable cells/ml. Membrane integrity of the cells is assessed by trypan blue exclusion. The test compound is dissolved in dimethyl sulfoxide at a final concentration of […]. This test compound stock is diluted further to 2 μM in DMEM (125 μl) before the addition of an equal volume of the 10^6 cells/ml cell suspension. The test compound (final incubation concentration of 1.0 μM with 0.1% dimethyl sulfoxide) and cells (final concentration of 0.5×10^6 cells/ml) are incubated at 37° C. in a 95% air/5% CO2 atmosphere for 3 h. Aliquots (50 μl) are removed at 0, 1, 2, and 3 hours and added to termination mixtures (100 μl) containing acetonitrile and an internal standard. […] The supernatant (90 μl) is removed, combined with 180 μof water, and analyzed by LC-MS/MS.
# Metabolic stability of the test compounds were evaluated also in human hepatocytes, following protocols described in Hallifax, et al. Drug Metabol. […]
# [2] = system: REL-A (p65) nuclear translocation, classical NF-kB signaling, HUVEC; experiment: REL-A HUVEC nuclear translocation assay; type: cell-based; conditions: Homo sapiens, TNF-α 2 ng/mL stimulation
# Protocol: as §1
# [3] = Liver microsome stability; type: in vitro ADME, human
# Protocol: General. Metabolic stability assays in liver microsomes are conducted with pooled female CD-1 mouse, male Sprague-Dawley rat, male beagle dog, male cynomolgus monkey, and mixed male and female human liver microsomal incubations. The general assay conditions are as follows. Incubation mixtures consisted of liver microsomes (0.5 mg of microsomal protein/ml) and the test compound (1.0 μM) with or without NADPH (1.0 mM) in the potassium phosphate buffer (100 mM; pH 7.4) with a final incubation volume of 0.25 ml. Reactions are initiated by the addition of NADPH or buffer and shaken in a water bath open to the air at 37° C. At times 0, 20, 40, and 60 min, aliquots (50 μl) are removed and added to termination mixtures (100 μl) containing acetonitrile and an internal standard. The samples are then centrifuged for 10 min at 2000 g. The supernatant (90 μl) is removed, combined with 180 μl of water, and analyzed by LC-MS/MS.
# Metabolic stability of the test compounds were evaluated in human liver microsomes following known protocols described in Halladay, et al. Drug Metabol. Lett. 2007, 1:67-72.
# T1 sequence (Q99558 whole entry): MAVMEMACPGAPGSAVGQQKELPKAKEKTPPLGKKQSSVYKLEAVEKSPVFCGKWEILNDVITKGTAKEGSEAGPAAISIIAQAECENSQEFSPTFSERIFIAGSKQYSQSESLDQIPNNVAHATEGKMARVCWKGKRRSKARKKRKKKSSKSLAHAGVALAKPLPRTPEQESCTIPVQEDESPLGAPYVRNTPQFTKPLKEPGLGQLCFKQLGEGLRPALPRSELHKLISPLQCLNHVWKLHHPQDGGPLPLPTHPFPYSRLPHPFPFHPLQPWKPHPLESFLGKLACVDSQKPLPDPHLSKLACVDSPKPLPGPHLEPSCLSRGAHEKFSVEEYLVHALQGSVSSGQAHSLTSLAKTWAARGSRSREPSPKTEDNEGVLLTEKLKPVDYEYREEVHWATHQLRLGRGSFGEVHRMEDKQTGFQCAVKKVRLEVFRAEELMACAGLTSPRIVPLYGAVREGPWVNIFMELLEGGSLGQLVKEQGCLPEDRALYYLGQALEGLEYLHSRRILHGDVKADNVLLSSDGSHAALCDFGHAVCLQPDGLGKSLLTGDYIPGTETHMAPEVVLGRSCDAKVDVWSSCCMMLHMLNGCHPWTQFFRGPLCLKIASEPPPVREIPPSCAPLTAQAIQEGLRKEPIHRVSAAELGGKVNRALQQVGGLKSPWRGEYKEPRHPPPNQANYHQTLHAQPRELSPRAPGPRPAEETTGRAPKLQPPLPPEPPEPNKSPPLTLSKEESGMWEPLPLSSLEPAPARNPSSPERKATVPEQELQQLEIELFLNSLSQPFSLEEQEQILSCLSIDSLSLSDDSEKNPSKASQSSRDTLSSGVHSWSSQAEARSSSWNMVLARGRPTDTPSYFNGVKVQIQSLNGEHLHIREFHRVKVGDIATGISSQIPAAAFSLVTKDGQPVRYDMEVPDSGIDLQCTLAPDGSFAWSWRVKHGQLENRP
compound,measurement,setting,value
"CN1C(=O)[C@@](O)(C#Cc2cccc(-c3cccc(C(N)=O)n3)c2)[C@H]2C[C@H]21 (single isomer, unassigned)","NIK enzyme inhibition, rank among the 4 stereoisomers",NIK,third most potent NIK enzyme inhibitor among the 4 stereoisomers
"CN1C(=O)[C@](O)(C#Cc2cccc(-c3cccc(C(N)=O)n3)c2)[C@@H]2C[C@@H]21 (single isomer, unassigned)","NIK enzyme inhibition, rank among the 4 stereoisomers",NIK,second most potent NIK enzyme inhibitor among the 4 stereoisomers
"CN1C(=O)[C@@](O)(C#Cc2cccc(-c3cccc(C(N)=O)n3)c2)[C@@H]2C[C@@H]21 (single isomer, unassigned)","NIK enzyme inhibition, rank among the 4 stereoisomers",NIK,no measurable inhibition
"CN1C(=O)[C@](O)(C#Cc2cccc(-c3cccc(C(N)=O)n3)c2)[C@H]2C[C@H]21 (single isomer, unassigned) [Compound 1]",IC50,[1],93 nM
same,Hep CL (human hepatocyte clearance),Hepatocyte stability; human hepatocytes,4.1 mL/min/kg
same,stability in the human hepatocyte assay compared with the corresponding comparator compound,"Hepatocyte stability; in words, versus comparators C-1, C-3, C-5",better stability
same,IC50,[2],> 5000 nM
same,HLM CL (human liver microsome clearance),[3]; human liver microsomes,1.2 mL/min/kg
same,stability in human liver microsomes compared with the respective pyrrolidinone comparator compound,"[3]; in words, versus comparators C-1, C-3, C-4, C-5, C-6",lower clearance; also recorded: better stability
same,"NIK enzyme inhibition, rank among the 4 stereoisomers",NIK,most potent NIK enzyme inhibitor among the 4 stereoisomers
same,Ki,"NIK; purified NIK 0.5 nM, 10 μM ATP, read-out: NIK ADP-FP Ki",0.4 nM
